According to US20100254940A1, “Compositions and Methods for Regulating an Immune Response in a Subject” (INNATE PHARMA, S.A., priority 2002, published 2010):

Legend:
γδ T cells [1] = experiment: In vivo γδ T cell amplification after successive i.v. HDMAPP/IL2 injections in cynomolgus monkeys; design: species or system cynomolgus monkeys (M. fascicularis); conditions: day 5
Protocol: Eight purpose bred healthy male cynomolgus monkeys (M. fascicularis). At the beginning of the study, body weights ranged from 3.5 to 4 kg and ages from 37 to 41 months.
Animals were anaesthetised with intra-muscular injection of 6 mg/kg Zoletil™ 100 (Tiletamine-Zolazepam, Virbac, Carros, France) before any perfusion.
HDMAPP was administered i.v. to male cynomolgus monkeys by 30-minute perfusions in a total volume of 50 ml with Ringer Lactate as vehicle. […]
The animals were co-treated subcutaneously with 0.6M IU IL2 in sterile water per day for 5 days.
Blood was drawn pre-dose and at day 4, 5, 7, 11 and 14 after HDMAPP perfusion for flow cytometry analysis of blood cellular populations of interest.
Peripheral γδ lymphocytes were analysed by flow cytometry on total monkey blood, after triple staining with anti-Vgamma9FITC, anti-CD3PE and anti-CD69PC5 antibodies (Vgamma9-FITC: 7B6 clone, produced, purified and FITC-coupled at Innate Pharma; CD3-PE: SP34 clone, BD Biosciences Pharmingen, Le Pont de Claix, France; CD69PC5: FN50 clone, Immunotech-Beckman-Coulter, Marseilles, France).
Briefly, 50 μl monkey blood was incubated 15 min at RT with 10 μl anti-gamma9-FITC, 5 μl anti-CD3-PE and 5 μl anti-CD69PC5 antibodies. Antibodies were washed with 3 ml 1×PBS, centrifuged for 4 min at 1300 rpm at RT and supernatant was discarded. Red cells were lysed with the OptiLyse C reagent (Immunotech-Beckman-Coulter, Marseilles, France) according to the manufacturer's instructions. At the final step, stained white blood cells were recovered by centrifugation and resuspended in 300 μl 1×PBS+0.2% PFA. Immediately before analysis, 50 μl calibrated Flow Count™ Fluorospheres (Immunotech-Beckman-Coulter, Marseilles, France) were added to the cells for absolute number counting of the populations of interest.

γδ T cell [2] = experiment: In vitro TNFα release assay, γδ T cell amplification from human PBMCs (in the presence of rhIL2); format: cell-based
Protocol: The in vitro biological activity of γδ T cell amplification from human PBMCs (in the presence of rhIL2) was assessed using a TNFα release assay.
Cytokine secretion and cytolytic activity can be assessed using any appropriate in vitro assay, or those provided in the examples herein. For example, cytokine secretion can be determined according to the methods described in Espinosa et al. (J. Biol. Chem., 2001, Vol. 276, Issue 21, 18337-18344), describing measurement of TNF-α release in a bioassay using TNF-α-sensitive cells. Briefly, 10^4 γδT cells/well were incubated with stimulus plus 25 units of IL2/well in 100 μl of culture medium during 24 h at 37° C. Then, 50 μl of supernatant were added to 50 μl of WEHI cells plated at 3×10^4 cells/well in culture medium plus actinomycin D (2 μg/ml) and LiCl (40 mM) and incubated for 20 h at 37° C. Viability of the TNF-α-sensitive cells and measured with a 3-(4,5-dimethylthiazol-2-yl)-2,5-diphenyltetrazolium bromide assay. 50 μl of 3-(4,5-dimethylthiazol-2-yl)-2,5-diphenyltetrazolium bromide (Sigma; 2.5 mg/ml in phosphate-buffered saline) per well were added, and after 4 h of incubation at 37° C., 50 μl of solubilization buffer (20% SDS, 66% dimethyl formamide, pH 4.7) were added, and absorbance (570 nm) was measured. Levels of TNF-α release were then calculated from a standard curve obtained using purified human rTNF-α (PeproTech, Inc., Rocky Hill, N.J.). Interferon-γ released by activated T cells was measured by a sandwich enzyme-linked immunosorbent assay. 5×10^4 γδT cells/well were incubated with stimulus plus 25 units of IL2/well in 100 μl of culture medium during 24 h at 37° C. Then, 50 μl of supernatant were harvested for enzyme-linked immunosorbent assay using mouse monoclonal antibodies (BIOSOURCE, Camarillo, Calif.). […]
BrHPP and HDMAPP bioactivity were compared using in vitro and in vivo assays. The in vitro biological activity of γδ T cell amplification from human PBMCs (in the presence of rhIL2) was assessed using a TNFα release assay.

γδ T cell [3] = experiment: γδ T cell amplification from human PBMCs, counting γδ T cell using flow cytometry (given as in vivo EC50); format: cell-based; conditions: for EC50: γδ T cell amplification from human PBMCs, flow cytometry count
Protocol: The biological activity of γδ T cell amplification from human PBMCs was assessed by counting γδ T cell using flow cytometry.
In vitro proliferation assays and in vitro TNFα release assay are performed essentially as described in Example 3.

Vγ9/Vδ2 T cells = conditions: reported; cited from earlier work
γδ T cells [4] = conditions: Wilhelm et al., 2003; cited from earlier work

Compound | γδ cells among CD3+ (γδ T cells [1]; first of 4 successive injections, 5 weeks apart, 2.6 mg/kg) | γδ cells among CD3+ (γδ T cells [1]; fourth of 4 successive injections) [%] | γδ cells among CD3+ (γδ T cells [1]; second of 4 successive injections) [%] | γδ cells among CD3+ (γδ T cells [1]; third of 4 successive injections) | difference in potency (γδ T cell [2]; HDMAPP vs BrHPP, in vitro EC50) [fold] | EC50 (γδ T cell [2]; T-cell, TNFα release assay, human PBMCs, rhIL2) [nM] | difference in potency (γδ T cell [3]; HDMAPP vs BrHPP) [log] | EC50 (γδ T cell [3]) [nM] | EC50 (Vγ9/Vδ2 T cells) [nM] | increase in γδ T cell count (γδ T cells [4]) [fold]
C/C(=C\COP(=O)(O)OP(=O)(O)O)CO [HDMAPP, (E)-4-hydroxy-3-methyl-2-butenyl pyrophosphate] | approx. 60% | ~40 | ~55 | approx. 60% | ~50 | ~0.6 | ~2 | ~0.005 | ~0.1 | 
O=P(O)(O)C(O)(Cn1ccnc1)P(=O)(O)O [Zoledronate®, reference compound] |  |  |  |  |  |  |  | ~1000 |  | 
NCCC(O)(P(=O)(O)O)P(=O)(O)O [pamidronate] |  |  |  |  |  |  |  |  |  | ≤ 2
